Assay results taken from ChEMBL document CHEMBL1201862, “PubChem BioAssay data set” (2004).
Active and inactive are the calls of the source.

Assays:
cells = type: functional, cell-based
[1] = target: T1, Nuclear receptor subfamily 0 group B member 1 (Homo sapiens, UniProt P51843); type: functional, cell-based;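 also: HEK293T cells transfected with SF-1 and DAX-1 plus StAR promoter luciferase reporter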
T1 sequence (P51843 whole entry): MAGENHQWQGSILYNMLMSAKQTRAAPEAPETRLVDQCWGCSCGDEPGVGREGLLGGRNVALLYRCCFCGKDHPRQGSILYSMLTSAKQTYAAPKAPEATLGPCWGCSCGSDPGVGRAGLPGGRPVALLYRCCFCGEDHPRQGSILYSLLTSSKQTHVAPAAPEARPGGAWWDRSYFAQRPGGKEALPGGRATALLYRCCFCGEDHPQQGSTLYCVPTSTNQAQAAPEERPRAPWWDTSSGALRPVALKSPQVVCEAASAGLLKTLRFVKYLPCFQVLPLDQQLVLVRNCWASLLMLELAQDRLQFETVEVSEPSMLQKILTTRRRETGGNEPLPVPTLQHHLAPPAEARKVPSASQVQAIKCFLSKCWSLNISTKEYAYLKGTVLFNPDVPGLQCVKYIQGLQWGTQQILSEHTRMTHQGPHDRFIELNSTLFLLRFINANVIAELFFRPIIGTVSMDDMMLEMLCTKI

[2] = target: Photoreceptor-specific nuclear receptor (Homo sapiens, UniProt Q9Y5X4); type: functional, cell-based;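 also: CHO-S cells with Gal4-NCOR and VP16-NR2E3 two-hybrid luciferase reporter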
Vero = experiment: Vero cell toxicity, dose response, cytotoxicity control, plate reader, cherry-pick samples (AID 687020); type: functional, cell-based; details: Chlorocebus sabaeus
[3] = target: Potassium voltage-gated channel subfamily KQT member 2 (Rattus norvegicus, UniProt O88943); experiment: KCNQ2 potassium channel inhibitors, dose response, cell-based, automated electrophysiology, set II, rat KCNQ2 (AID 588637); type: functional
[4] = target: Hepatocyte nuclear factor 4-alpha (Homo sapiens, UniProt P41235); type: functional, cell-based;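 also: biochemical luminescence-based dose-response counterscreen measuring inhibition of HNF4 dimerization, run alongside a screen for blockers of ABHD5–perilipin-5 interaction; split luciferase complementation of HNF4 fusion proteins in cell lysate measuring dimerization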
Beta-lactamase [5] = target: T2, Beta-lactamase (Pseudomonas aeruginosa, UniProt Q79MP6); experiment: IMP-1 metallo-beta-lactamase inhibitors, dose response, selectivity assay for VIM-2 inhibitor project, biochemical, epi-absorbance (AID 1920)
[6] = target: DNA dC->dU-editing enzyme APOBEC-3A (Homo sapiens, UniProt P31941); experiment: APOBEC3A DNA deaminase inhibitors, dose response, biochemical (AID 504722); type: functional
[7] = target: DNA dC->dU-editing enzyme APOBEC-3G (Homo sapiens, UniProt Q9HC16); experiment: Dose Response confirmation of small molecule APOBEC3G DNA Deaminase Inhibitors via a fluorescence-based single-stranded DNA deaminase assay. [Related pubchem assays (depositor defined):AID493012, AID493028]; type: functional
Beta-lactamase [8] = target: Beta-lactamase (Salmonella choleraesuis (strain SC-B67), UniProt Q5J463); experiment: Epi-absorbance-based counterscreen for selective VIM-2 inhibitors: dose response biochemical high throughput screening assay to identify inhibitors of TEM-1 serine-beta-lactamase.
Beta-lactamase [9] = target: T2, Beta-lactamase; experiment: […] counterscreen for selective VIM-2 inhibitors: dose response biochemical high throughput screening assay to identify inhibitors of IMP-1 metallo-beta-lactamase.
HEK293 = experiment: inhibitors of LMP1-driven NF-kB reporter, dose response, cell-based, HEK293, luciferase, cherry-pick (AID 588343); type: functional; details: Homo sapiens
Beta Lactamase [10] = target: T3, Beta Lactamase (Pseudomonas aeruginosa, UniProt Q932Y6); experiment: VIM-2 inhibitor FRET-based artefact check, dose response, artefact control for selective VIM-2 inhibitor project, biochemical, FRET readout, CCF2 substrate (AID 1926)
Beta Lactamase [11] = target: T3, Beta Lactamase; experiment: VIM-2 metallo-beta-lactamase inhibitor potency, dose response, biochemical, epi-absorbance readout, selective inhibitors (AID 1919)

T3 sequence (Q932Y6 whole entry): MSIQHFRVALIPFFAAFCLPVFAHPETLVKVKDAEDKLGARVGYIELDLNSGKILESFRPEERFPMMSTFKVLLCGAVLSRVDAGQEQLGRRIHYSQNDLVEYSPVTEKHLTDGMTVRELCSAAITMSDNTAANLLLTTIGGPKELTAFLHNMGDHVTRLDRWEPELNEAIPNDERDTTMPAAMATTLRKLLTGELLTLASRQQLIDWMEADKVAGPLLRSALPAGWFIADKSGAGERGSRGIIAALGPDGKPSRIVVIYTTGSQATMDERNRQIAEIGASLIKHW
T2 sequence (Q79MP6 whole entry): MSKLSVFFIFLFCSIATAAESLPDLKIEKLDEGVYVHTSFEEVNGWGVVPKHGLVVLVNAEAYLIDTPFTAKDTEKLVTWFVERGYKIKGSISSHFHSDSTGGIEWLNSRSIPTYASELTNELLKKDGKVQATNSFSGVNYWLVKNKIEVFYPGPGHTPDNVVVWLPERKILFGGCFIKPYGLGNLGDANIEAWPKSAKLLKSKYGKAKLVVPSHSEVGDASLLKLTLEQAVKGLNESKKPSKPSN
Potassium voltage-gated channel subfamily KQT member 2, sequence (O88943 whole entry, the tested form may be a part): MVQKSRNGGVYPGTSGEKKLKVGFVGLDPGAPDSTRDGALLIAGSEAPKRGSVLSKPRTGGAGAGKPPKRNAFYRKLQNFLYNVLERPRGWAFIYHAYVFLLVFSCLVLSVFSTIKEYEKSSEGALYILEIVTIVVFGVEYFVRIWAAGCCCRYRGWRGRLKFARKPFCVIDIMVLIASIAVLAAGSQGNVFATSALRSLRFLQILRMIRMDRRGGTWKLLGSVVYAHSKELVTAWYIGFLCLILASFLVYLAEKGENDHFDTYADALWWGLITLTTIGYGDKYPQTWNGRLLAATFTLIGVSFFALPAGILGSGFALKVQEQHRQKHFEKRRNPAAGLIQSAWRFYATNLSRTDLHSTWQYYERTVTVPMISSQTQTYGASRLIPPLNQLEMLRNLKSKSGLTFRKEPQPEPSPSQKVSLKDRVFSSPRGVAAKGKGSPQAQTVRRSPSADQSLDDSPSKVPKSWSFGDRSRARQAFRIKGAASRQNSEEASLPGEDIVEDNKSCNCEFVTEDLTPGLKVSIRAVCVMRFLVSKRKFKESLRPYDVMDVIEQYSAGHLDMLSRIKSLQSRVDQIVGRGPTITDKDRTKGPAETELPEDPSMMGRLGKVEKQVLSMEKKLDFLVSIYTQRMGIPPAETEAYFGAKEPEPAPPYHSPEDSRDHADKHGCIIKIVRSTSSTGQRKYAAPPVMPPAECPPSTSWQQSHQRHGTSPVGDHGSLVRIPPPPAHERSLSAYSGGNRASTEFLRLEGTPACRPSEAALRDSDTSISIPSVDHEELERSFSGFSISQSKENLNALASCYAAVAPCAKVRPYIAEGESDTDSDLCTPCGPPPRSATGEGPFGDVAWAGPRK
Hepatocyte nuclear factor 4-alpha, sequence (P41235 whole entry, the tested form may be a part): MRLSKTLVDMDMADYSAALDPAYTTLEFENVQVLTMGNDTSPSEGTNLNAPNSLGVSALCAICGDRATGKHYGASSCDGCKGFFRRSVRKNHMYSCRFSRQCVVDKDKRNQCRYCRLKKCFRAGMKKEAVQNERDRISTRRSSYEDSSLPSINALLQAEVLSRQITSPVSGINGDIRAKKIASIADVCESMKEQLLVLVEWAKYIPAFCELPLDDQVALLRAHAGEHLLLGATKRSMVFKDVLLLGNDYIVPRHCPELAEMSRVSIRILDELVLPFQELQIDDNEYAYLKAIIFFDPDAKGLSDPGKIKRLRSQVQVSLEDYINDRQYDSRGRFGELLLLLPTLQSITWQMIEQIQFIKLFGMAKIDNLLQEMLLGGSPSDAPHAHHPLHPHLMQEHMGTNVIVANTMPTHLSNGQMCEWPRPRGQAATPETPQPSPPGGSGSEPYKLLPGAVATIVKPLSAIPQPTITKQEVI
Beta-lactamase (Salmonella choleraesuis (strain SC-B67), UniProt Q5J463), sequence (Q5J463 whole entry): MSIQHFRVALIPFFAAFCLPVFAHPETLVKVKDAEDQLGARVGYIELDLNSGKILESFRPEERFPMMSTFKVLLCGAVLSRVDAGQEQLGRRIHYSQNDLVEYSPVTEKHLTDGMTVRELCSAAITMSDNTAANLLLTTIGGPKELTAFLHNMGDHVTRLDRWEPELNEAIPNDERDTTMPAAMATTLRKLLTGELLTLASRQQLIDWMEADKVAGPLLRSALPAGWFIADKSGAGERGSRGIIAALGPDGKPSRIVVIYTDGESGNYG
DNA dC->dU-editing enzyme APOBEC-3A, sequence (P31941 whole entry): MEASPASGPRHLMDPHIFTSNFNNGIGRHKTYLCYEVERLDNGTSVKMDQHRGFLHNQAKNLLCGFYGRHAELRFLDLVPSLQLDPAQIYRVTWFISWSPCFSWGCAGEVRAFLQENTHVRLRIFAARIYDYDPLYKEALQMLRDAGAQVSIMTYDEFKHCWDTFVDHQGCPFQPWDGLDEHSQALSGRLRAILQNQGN
Photoreceptor-specific nuclear receptor, sequence (Q9Y5X4 whole entry, the tested form may be a part): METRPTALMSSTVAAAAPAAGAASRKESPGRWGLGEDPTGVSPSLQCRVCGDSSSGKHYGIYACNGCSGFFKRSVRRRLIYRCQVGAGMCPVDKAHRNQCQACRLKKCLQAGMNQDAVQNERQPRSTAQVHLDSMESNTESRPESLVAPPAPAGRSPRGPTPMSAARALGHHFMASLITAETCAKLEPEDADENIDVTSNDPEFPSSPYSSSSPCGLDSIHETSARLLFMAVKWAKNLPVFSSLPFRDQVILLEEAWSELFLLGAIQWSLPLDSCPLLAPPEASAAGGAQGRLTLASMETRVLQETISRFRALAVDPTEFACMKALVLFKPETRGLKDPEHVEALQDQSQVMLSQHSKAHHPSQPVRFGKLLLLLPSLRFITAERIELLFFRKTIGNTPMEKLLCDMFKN
DNA dC->dU-editing enzyme APOBEC-3G, sequence (Q9HC16 whole entry): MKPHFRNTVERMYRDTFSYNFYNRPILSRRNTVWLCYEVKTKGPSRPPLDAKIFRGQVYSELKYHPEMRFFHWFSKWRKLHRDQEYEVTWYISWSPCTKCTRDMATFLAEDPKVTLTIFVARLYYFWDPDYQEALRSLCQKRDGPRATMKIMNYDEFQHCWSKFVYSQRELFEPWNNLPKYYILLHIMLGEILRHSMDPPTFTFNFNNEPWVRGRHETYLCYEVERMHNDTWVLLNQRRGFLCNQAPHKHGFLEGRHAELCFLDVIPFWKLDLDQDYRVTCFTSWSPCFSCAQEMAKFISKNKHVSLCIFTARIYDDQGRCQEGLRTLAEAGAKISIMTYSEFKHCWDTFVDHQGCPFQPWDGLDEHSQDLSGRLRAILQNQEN

COc1ccccc1NS(=O)(=O)c1cc(NC(=O)c2ccc(NC(C)=O)cc2)ccc1N1CCOCC1
IC50 (cells): > 67.5 µM (inactive)
IC50 [1]: > 67.5 µM (inactive)

CCOC(=O)N1CCN(C(=O)c2ccc(S(=O)(=O)Nc3ccc(C)cc3)cc2)CC1
IC50 [2]: 5.96 µM (active)

COc1ccc(C)cc1N(CC(=O)Nc1ccc(S(=O)(=O)N2CCOCC2)cc1)S(C)(=O)=O
AC50 (Vero): 29.5 µM (active)

CCc1nc2ccc(F)cc2c(C(=O)NC2CCCCC2C)c1C (centres undefined)
IC50 [3]: 0.636 µM (active)

CC(C)(C)NC(=O)C(c1ccc(-c2ccccc2)cc1)n1c(=O)c(-c2ccco2)nc2ccccc21 (centres undefined)
IC50 [4]: 1.91 µM (active)

CC(=C/c1ccccc1)/C=N/n1c(S)nnc1-c1ccncc1
IC50 (Beta-lactamase [5]): > 59.6 µM (inactive)
IC50 [6]: > 100 µM (inactive)
IC50 [7]: 2.33 µM (active)
IC50 (Beta-lactamase [8]): > 59.6 µM (inactive)
IC50 (Beta-lactamase [9]): > 59.6 µM (inactive)
AC50 (HEK293): 5.9 µM (active)
IC50 (Beta Lactamase [10]): 3.26 µM (active)
IC50 (Beta Lactamase [11]): > 59.6 µM (inactive)
